# Target: cortisol synthase (CYP11B1) (Macaca fascicularis, UniProt A0A2K5ULY1)
# Assay: Inhibition of Cortisol Synthesis
# Format: biochemical, cynomolgus monkey
# Conditions: cynomolgus adrenal gland mitochondria; 150 units of CYP11B1, 11-deoxycortisol as substrate, cortisol measured as product
# Description: The aldosterone synthase and cortisol synthase inhibition assays employ cynomolgus adrenal gland mitochondria as the source of aldosterone synthase (CYP11B2) and cortisol synthase (CYP11B1). […] Activity of CYP11B2 and CYP11B1 in these preparations is defined as the amount of enzyme that generates 1 pmol of product in one hour under the conditions described.
# Assays are performed in 96-well format in a final volume of 60 μL/well, containing 100 mM potassium phosphate, pH 7.4, 1% (v/v) DMSO, and additionally, 2 μM of corticosterone and 50 units of CYP11B2 activity. Reactions are started by the addition of NADPH to 1 mM and allowed to proceed for 90 minutes at 37° C. Reactions are terminated by the addition of 60 μL of MeCN containing an internal standard for mass spectrometry. One hundred microliters are then transferred to a glass filter plate and centrifuged at 570×g for 5 minutes and the filtrate is collected. Reaction product aldosterone is quantified by mass spectrometry. To determine the assay blank value (0% activity), NADPH is omitted from some reactions.
# Dose dependent inhibition is quantified by the inclusion of compound at various concentrations. Maximum activity (100%) is defined by reactions containing NADPH, but without compound.
# Assays are performed as for aldosterone synthase except for the use of 150 units of CYP11B1, 11-deoxycortisol as substrate and cortisol measured as product.
row,IC50 [µM],Compound
1,> 100,"NC(=O)c1cccc2c1OCC(c1cncc(C3(O)CCOCC3)c1)O2 (single isomer, unassigned) [Cpd 1A, 2-[5-(4-Hydroxy-tetrahydro-pyran-4-yl)-pyridin-3-yl]-2,3-dihydro-benzo[1,4]dioxine-5-carboxylic acid amide]"
2,24,"NC(=O)c1cccc2c1OCC(c1cncc(C3(O)CCOCC3)c1)O2 (single isomer, unassigned) [Cpd 1B, 2-[5-(4-Hydroxy-tetrahydro-pyran-4-yl)-pyridin-3-yl]-2,3-dihydro-benzo[1,4]dioxine-5-carboxylic acid amide]"
3,0.06,"N#CC1(c2cncc(C3COc4c(cccc4C(N)=O)O3)c2)CC1 (single isomer, unassigned) [Cpd 2A, 2-[5-(1-Cyano-cyclopropyl)-pyridin-3-yl]-2,3-dihydro-benzo[1,4]dioxine-5-carboxylic acid amide]"
4,0.23,"N#CC1(c2cncc(C3COc4c(cccc4C(N)=O)O3)c2)CC1 (single isomer, unassigned) [Cpd 2B, 2-[5-(1-Cyano-cyclopropyl)-pyridin-3-yl]-2,3-dihydro-benzo[1,4]dioxine-5-carboxylic acid amide]"
5,> 30,"NC(=O)c1cccc2c1OCC(c1cncc(CN3CCCCS3(=O)=O)c1)O2 (single isomer, unassigned) [Cpd 3A, 2-[5-(1,1-Dioxo-1λ^6,-[1,2]thiazinan-2-ylmethyl)-pyridin-3-yl]-2,3-dihydro-benzo[1,4]dioxine-5-carboxylic acid amide]"
6,5.6,"NC(=O)c1cccc2c1OCC(c1cncc(CN3CCCCS3(=O)=O)c1)O2 (single isomer, unassigned) [Cpd 3B, 2-[5-(1,1-Dioxo-1λ^6,-[1,2]thiazinan-2-ylmethyl)-pyridin-3-yl]-2,3-dihydro-benzo[1,4]dioxine-5-carboxylic acid amide]"
7,3.1,"NC(=O)c1cccc2c1OCC(c1cccnc1)O2 (single isomer, unassigned) [Cpd 4A, 2-Pyridin-3-yl-2,3-dihydro-benzo[1,4]dioxine-5-carboxylic acid amide]"
8,2.5,"NC(=O)c1cccc2c1OCC(c1cccnc1)O2 (single isomer, unassigned) [Cpd 4B, 2-Pyridin-3-yl-2,3-dihydro-benzo[1,4]dioxine-5-carboxylic acid amide]"
9,> 30,"NC(=O)c1cccc2c1OCC(c1cncc(CN3CCCC3=O)c1)O2 (single isomer, unassigned) [Cpd 5A, 2-[5-(2-Oxo-pyrrolidin-1-ylmethyl)-pyridin-3-yl]-2,3-dihydro-benzo[1,4]dioxine-5-carboxylic acid amide]"
10,22,"NC(=O)c1cccc2c1OCC(c1cncc(CN3CCCC3=O)c1)O2 (single isomer, unassigned) [Cpd 5B, 2-[5-(2-Oxo-pyrrolidin-1-ylmethyl)-pyridin-3-yl]-2,3-dihydro-benzo[1,4]dioxine-5-carboxylic acid amide]"
11,2.2,"CN1C(=O)CCC1c1cncc(C2COc3c(cccc3C(N)=O)O2)c1 (single isomer, unassigned) [Cpd 6AA, 2-[5-(-1-Methyl-5-oxo-pyrrolidin-2-yl)-pyridin-3-yl]-2,3-dihydro-benzo[1,4]dioxine-5-carboxylic acid amide]"
12,10,"CN1C(=O)CCC1c1cncc(C2COc3c(cccc3C(N)=O)O2)c1 (single isomer, unassigned) [Cpd 6AB, 2-[5-(-1-Methyl-5-oxo-pyrrolidin-2-yl)-pyridin-3-yl]-2,3-dihydro-benzo[1,4]dioxine-5-carboxylic acid amide]"
13,> 30,"CN1C(=O)CCC1c1cncc(C2COc3c(cccc3C(N)=O)O2)c1 (single isomer, unassigned) [Cpd 6BA, 2-[5-(-1-Methyl-5-oxo-pyrrolidin-2-yl)-pyridin-3-yl]-2,3-dihydro-benzo[1,4]dioxine-5-carboxylic acid amide]"
14,> 30,"CN1C(=O)CCC1c1cncc(C2COc3c(cccc3C(N)=O)O2)c1 (single isomer, unassigned) [Cpd 6BB, 2-[5-(-1-Methyl-5-oxo-pyrrolidin-2-yl)-pyridin-3-yl]-2,3-dihydro-benzo[1,4]dioxine-5-carboxylic acid amide]"
15,> 30,"CC(=O)N1CCC[C@@H](Oc2cncc(C3COc4c(cccc4C(N)=O)O3)c2)C1 (single isomer, unassigned) [Cpd 7A]"
16,19,"CC(=O)N1CCC[C@@H](Oc2cncc(C3COc4c(cccc4C(N)=O)O3)c2)C1 (single isomer, unassigned) [Cpd 7B]"

row,IC50 [µM],Compound
1,> 30,"CS(=O)(=O)Cc1cncc(C2COc3c(cccc3C(N)=O)O2)c1 (single isomer, unassigned) [Cpd 8A, 2-(5-Methanesulfonylmethyl-pyridin-3-yl)-2,3-dihydro-benzo[1,4]dioxine-5-carboxylic acid amide]"
2,13,"CS(=O)(=O)Cc1cncc(C2COc3c(cccc3C(N)=O)O2)c1 (single isomer, unassigned) [Cpd 8B, 2-(5-Methanesulfonylmethyl-pyridin-3-yl)-2,3-dihydro-benzo[1,4]dioxine-5-carboxylic acid amide]"
3,5.2,"NC(=O)c1cccc2c1OCC(c1cncc(C(F)(F)F)c1)O2 (single isomer, unassigned) [Cpd 9A, 2-(5-Trifluoromethyl-pyridin-3-yl)-2,3-dihydro-benzo[1,4]dioxine-5-carboxylic acid amide]"
4,2.2,"NC(=O)c1cccc2c1OCC(c1cncc(C(F)(F)F)c1)O2 (single isomer, unassigned) [Cpd 9B, 2-(5-Trifluoromethyl-pyridin-3-yl)-2,3-dihydro-benzo[1,4]dioxine-5-carboxylic acid amide]"
5,3.4,"NC(=O)c1cccc2c1OCC(c1cncc(C3CCOCC3)c1)O2 (single isomer, unassigned) [Cpd 10A, 2-[5-(Tetrahydro-pyran-4-yl)-pyridin-3-yl]-2,3-dihydro-benzo[1,4]dioxine-5-carboxylic acid amide]"
6,0.23,"NC(=O)c1cccc2c1OCC(c1cncc(C3CCOCC3)c1)O2 (single isomer, unassigned) [Cpd 10B, 2-[5-(Tetrahydro-pyran-4-yl)-pyridin-3-yl]-2,3-dihydro-benzo[1,4]dioxine-5-carboxylic acid amide]"
7,24,"NC(=O)c1cccc2c1OCC(c1cncc(C3(O)CCCCC3)c1)O2 (single isomer, unassigned) [Cpd 11A, 2-[5-(1-Hydroxy-cyclohexyl)-pyridin-3-yl]-2,3-dihydro-benzo[1,4]dioxine-5-carboxylic acid amide]"
8,4.4,"NC(=O)c1cccc2c1OCC(c1cncc(C3(O)CCCCC3)c1)O2 (single isomer, unassigned) [Cpd 11B, 2-[5-(1-Hydroxy-cyclohexyl)-pyridin-3-yl]-2,3-dihydro-benzo[1,4]dioxine-5-carboxylic acid amide]"
9,18,"CC(=O)N1CCC(Oc2cncc(C3COc4c(cccc4C(N)=O)O3)c2)CC1 (single isomer, unassigned) [Cpd 12A, 2-[5-(1-Acetyl-piperidin-4-yloxy)-pyridin-3-yl]-2,3-dihydro-benzo[1,4]dioxine-5-carboxylic acid amide]"
10,2,"CC(=O)N1CCC(Oc2cncc(C3COc4c(cccc4C(N)=O)O3)c2)CC1 (single isomer, unassigned) [Cpd 12B, 2-[5-(1-Acetyl-piperidin-4-yloxy)-pyridin-3-yl]-2,3-dihydro-benzo[1,4]dioxine-5-carboxylic acid amide]"
11,> 100,"NC(=O)c1cccc2c1OCC(c1cncc(CC(=O)N3CCOCC3)c1)O2 (single isomer, unassigned) [Cpd 13A, 2-[5-(2-Morpholin-4-yl-2-oxo-ethyl)-pyridin-3-yl]-2,3-dihydro-benzo[1,4]dioxine-5-carboxylic acid amide]"
12,66,"NC(=O)c1cccc2c1OCC(c1cncc(CC(=O)N3CCOCC3)c1)O2 (single isomer, unassigned) [Cpd 13B, 2-[5-(2-Morpholin-4-yl-2-oxo-ethyl)-pyridin-3-yl]-2,3-dihydro-benzo[1,4]dioxine-5-carboxylic acid amide]"
13,12,"NC(=O)c1cccc2c1OCC(c1cncc(CNC(=O)C3CC3)c1)O2 (single isomer, unassigned) [Cpd 14A, 2-{5-[(Cyclopropanecarbonyl-amino)-methyl]-pyridin-3-yl}-2,3-dihydro-benzo[1,4]dioxine-5-carboxylic acid amide.]"
14,> 30,"NC(=O)c1cccc2c1OCC(c1cncc(CNC(=O)C3CC3)c1)O2 (single isomer, unassigned) [Cpd 14B, 2-{5-[(Cyclopropanecarbonyl-amino)-methyl]-pyridin-3-yl}-2,3-dihydro-benzo[1,4]dioxine-5-carboxylic acid amide.]"
15,15,"NC(=O)c1cccc2c1OCC(c1cncc(CN3CCOCC3=O)c1)O2 (single isomer, unassigned) [Cpd 15A, 2-[5-(3-Oxo-morpholin-4-ylmethyl)-pyridin-3-yl]-2,3-dihydro-benzo[1,4]dioxine-5-carboxylic acid amide]"
16,> 30,"NC(=O)c1cccc2c1OCC(c1cncc(CN3CCOCC3=O)c1)O2 (single isomer, unassigned) [Cpd 15B, 2-[5-(3-Oxo-morpholin-4-ylmethyl)-pyridin-3-yl]-2,3-dihydro-benzo[1,4]dioxine-5-carboxylic acid amide]"
